Assay results as given in patent publication US8278485B2, “Process for the production of 2-[4-(3- and 2-fluorobenzyloxy) benzylamino] propanamides” (Newron Pharmaceuticals S.p.A., priority 2006, dated 2012).

Columns and labels:
[1] = Cytotoxicity assay in human neuroblastoma cell line SH-SY-5Y; type: cell-based; details: SH-SY-5Y neuroblastoma cells, 24 hours incubation, Alamar Blue, concentration inducing 50% of mortality
Protocol: Cytotoxicity Assay in Human Neuroblastoma Cell Line SH-SY-5Y
At time zero, the cells were seeded at 1.10^4/cm^2 in 96 well plates in DMEM growth medium+10% heat inactivated FBS+2 mM 1-Glutamine+100 U/mL-100 μg/mL Penicillin/Streptomycin.
After 72 hours at subconfluent phase of growth, the medium was removed and cells were incubated for 24 hours at 37° C. in 180 μl of neurobasal medium+2 mM 1-Glutamine (Life Technologies) with or without test compounds (20 μl, at least 5 concentrations in triplicate).
At the end of incubation, 20 μl of Alamar Blue dye (AlamarBlue™ Assay Kit, Promega) were directly added to the cell medium.
Four hours after, the cytotoxicity was assessed by measuring the fluorescence at 530 nm excitation and 595 nm emission using Tecan Spectrafluor plate reader.
Before and at the end of the treatment, the cultures were monitored microscopically by an Olympus IX70 inverted light microscope matched to an Image Analyzer (Image Pro Plus, 5.1) to evaluate the cellular morphology.
Results are expressed in Table 1 as concentration inducing 50% of mortality.

CYP2D6 = target: T1, CYP2D6 (Homo sapiens, UniProt P10635); test: Cytochrome P450 assay (Gentest Kit), CYP2D6; type: in vitro ADME; details: human recombinant isoenzyme
T1 construct: purchased Gentest
T1 sequence (P10635 whole entry): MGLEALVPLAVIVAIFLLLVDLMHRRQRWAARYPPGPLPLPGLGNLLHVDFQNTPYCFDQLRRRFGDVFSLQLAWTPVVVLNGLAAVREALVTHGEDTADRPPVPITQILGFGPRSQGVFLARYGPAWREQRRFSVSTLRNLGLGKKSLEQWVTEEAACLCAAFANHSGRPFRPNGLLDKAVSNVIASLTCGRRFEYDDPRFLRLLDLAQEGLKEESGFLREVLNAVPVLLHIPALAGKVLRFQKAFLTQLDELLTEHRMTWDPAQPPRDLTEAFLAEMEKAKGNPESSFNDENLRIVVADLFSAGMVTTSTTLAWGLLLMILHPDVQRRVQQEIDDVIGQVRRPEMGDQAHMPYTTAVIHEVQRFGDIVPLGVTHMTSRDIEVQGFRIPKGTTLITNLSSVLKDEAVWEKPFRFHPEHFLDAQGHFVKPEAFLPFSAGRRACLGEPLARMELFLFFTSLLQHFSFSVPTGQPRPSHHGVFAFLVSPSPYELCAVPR
Protocol: (§1) Inhibition of the five most important Cytochrome P450 isoforms (CYP1A2, CYP2C9, CYP2C19, CYP2D6 and CYP3A4), involved in drug metabolism, was measured using specific substrates that become fluorescent upon CYP metabolism (Gentest Kit assay).
(§2) Compounds were tested in a 96-well plate containing incubation/NADPH regenerating buffer. Specific human recombinant isoenzymes and substrates were added and incubated at 37° C. for 15 minutes for CYP1A2/CEC, […], 45 minutes for CYP2C9/MFC and 30 minutes for the others CYP450.
3[2(N,N-diethyl-N-mwthylamino) ethyl]-7-methoxy-4-methylcoumarin (CYP2D6)

CYP2C19 = target: T2, CYP2C19 (Homo sapiens, UniProt P33261); test: Cytochrome P450 assay (Gentest Kit), CYP2C19; type: in vitro ADME; details: human recombinant isoenzyme
T2 construct: purchased Gentest
T2 sequence (P33261 whole entry): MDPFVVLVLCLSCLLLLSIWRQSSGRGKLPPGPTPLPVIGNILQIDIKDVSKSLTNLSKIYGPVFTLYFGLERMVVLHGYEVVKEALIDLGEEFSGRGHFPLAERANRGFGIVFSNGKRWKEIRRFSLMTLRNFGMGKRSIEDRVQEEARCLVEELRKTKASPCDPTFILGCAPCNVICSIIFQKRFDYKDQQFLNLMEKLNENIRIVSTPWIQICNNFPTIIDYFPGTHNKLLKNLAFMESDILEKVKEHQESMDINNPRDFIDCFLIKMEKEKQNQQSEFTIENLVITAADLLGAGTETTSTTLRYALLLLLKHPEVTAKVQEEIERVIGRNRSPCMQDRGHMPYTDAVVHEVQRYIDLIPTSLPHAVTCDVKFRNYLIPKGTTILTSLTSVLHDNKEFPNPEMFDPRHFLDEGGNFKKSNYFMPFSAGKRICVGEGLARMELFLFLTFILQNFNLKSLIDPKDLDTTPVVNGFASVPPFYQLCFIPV
Protocol: as §1, §2
(§3) The specific substrates were the following: 3-cyano-7-ethoxycoumarin (CYP2C19 and CYP1A2),

CYP2C9 = target: T3, CYP2C9 (Homo sapiens, UniProt P11712); test: Cytochrome P450 assay (Gentest Kit), CYP2C9; type: in vitro ADME; details: human recombinant isoenzyme
T3 construct: purchased Gentest
T3 sequence (P11712 whole entry): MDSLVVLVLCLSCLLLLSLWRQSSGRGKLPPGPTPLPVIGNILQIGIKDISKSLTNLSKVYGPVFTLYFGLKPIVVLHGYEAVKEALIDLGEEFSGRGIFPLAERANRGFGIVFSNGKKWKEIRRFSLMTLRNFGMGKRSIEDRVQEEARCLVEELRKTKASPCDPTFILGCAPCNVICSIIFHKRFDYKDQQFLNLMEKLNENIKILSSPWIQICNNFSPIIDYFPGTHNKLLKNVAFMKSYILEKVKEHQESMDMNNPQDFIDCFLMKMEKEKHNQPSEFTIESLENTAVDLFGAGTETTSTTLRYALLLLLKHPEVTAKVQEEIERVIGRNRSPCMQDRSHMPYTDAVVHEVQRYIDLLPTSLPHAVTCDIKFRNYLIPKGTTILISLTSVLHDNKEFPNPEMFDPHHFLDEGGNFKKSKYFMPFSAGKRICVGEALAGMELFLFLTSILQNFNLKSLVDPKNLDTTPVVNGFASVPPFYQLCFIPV
Protocol: as §1, §2
7-methoxy-4-trifluoromethylcoumarin (CYP2C9),

CYP1A2 = target: T4, CYP1A2 (Homo sapiens, UniProt P05177); test: Cytochrome P450 assay (Gentest Kit), CYP1A2; type: in vitro ADME; details: human recombinant isoenzyme
T4 construct: purchased Gentest
T4 sequence (P05177 1-516): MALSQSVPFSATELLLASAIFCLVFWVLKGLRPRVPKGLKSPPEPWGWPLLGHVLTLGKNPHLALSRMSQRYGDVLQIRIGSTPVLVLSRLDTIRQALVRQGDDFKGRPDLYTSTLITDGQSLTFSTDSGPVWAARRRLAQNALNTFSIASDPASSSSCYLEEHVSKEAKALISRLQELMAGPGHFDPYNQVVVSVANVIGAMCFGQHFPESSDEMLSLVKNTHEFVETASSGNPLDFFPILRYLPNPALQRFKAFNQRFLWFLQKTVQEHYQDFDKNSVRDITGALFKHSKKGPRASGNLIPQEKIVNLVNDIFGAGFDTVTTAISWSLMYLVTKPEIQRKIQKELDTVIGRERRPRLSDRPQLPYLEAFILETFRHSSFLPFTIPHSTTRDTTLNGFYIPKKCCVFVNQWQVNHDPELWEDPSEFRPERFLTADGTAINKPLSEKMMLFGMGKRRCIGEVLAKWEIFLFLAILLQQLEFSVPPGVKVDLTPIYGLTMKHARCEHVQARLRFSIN
Protocol: as §1, §2, §3

mice [2] = test: Maximal Electroshock Test (MES) in mice; type: in vivo
Protocol: Maximal Electroshock Test (MES) in Mice
The maximal electroshock test (MES) is used commonly in the screening of anti-epileptic drugs in rodent models.
Animals and Apparatus: Male CD1 mice weighing 25 g were used. […] The stimulus was delivered intra-aurally through clip electrodes in mice (0.7 seconds of a 40 mA shock, with a pulse train of 80 Hz having a pulse duration of 0.4 ms). The acute effect of compounds administered intraperitoneally or orally 15-60 minutes before MES induction were examined and compared with a vehicle control group. Ten mice were studied per group. Complete suppression of the hindlimb tonic extensor component of seizures was taken as evidence of anticonvulsant activity.
The compounds of the invention were administered orally or intraperitoneally at the doses of 3-30 mg/kg.
The results are expressed in Tables 3 and 4 as % of protection.

HERG channel = HERG channel (Homo sapiens, UniProt Q12809); test: HERG current in transfected CHO cell lines
Sequence of HERG channel (Q12809 whole entry): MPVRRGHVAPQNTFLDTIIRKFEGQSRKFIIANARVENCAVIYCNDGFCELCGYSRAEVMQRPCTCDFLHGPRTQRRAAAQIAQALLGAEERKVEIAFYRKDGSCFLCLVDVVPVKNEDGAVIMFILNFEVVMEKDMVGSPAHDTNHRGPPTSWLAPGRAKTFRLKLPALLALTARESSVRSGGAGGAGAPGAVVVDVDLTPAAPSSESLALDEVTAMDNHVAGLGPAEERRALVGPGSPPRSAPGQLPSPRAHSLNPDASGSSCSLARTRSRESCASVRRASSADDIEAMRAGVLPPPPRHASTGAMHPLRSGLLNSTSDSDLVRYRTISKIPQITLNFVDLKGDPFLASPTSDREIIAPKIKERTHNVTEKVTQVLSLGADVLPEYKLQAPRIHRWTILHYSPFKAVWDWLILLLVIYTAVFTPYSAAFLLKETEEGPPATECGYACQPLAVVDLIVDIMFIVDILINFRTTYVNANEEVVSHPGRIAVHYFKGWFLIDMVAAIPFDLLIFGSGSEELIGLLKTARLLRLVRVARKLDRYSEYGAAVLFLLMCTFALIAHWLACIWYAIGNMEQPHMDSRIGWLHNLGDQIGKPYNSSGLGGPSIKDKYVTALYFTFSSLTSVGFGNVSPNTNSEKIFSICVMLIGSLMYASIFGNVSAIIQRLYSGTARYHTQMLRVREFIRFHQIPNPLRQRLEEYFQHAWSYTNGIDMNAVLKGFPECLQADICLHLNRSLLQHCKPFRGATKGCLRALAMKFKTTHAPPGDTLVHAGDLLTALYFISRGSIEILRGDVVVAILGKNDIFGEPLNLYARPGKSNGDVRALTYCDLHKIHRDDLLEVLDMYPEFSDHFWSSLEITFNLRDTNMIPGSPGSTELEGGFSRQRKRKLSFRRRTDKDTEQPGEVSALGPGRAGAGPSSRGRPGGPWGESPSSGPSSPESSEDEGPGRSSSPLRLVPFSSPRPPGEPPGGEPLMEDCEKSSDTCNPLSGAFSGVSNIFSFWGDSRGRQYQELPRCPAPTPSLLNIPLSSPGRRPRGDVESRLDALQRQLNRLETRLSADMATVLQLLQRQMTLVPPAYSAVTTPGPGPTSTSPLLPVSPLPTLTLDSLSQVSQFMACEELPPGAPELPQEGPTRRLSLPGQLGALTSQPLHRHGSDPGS
Protocol: The inhibition of HERG current was tested in CHO cells stably expressing recombinant HERG channel.
To evaluate the effect of the test compounds on HERG currents, cells were clamped at −80 Mv, depolarised to 0 mV for 5 seconds allowing activation of HERG current and repolarised to −50 mV during 5 seconds allowing HERG tail current to deactivate. This procedure was repeated at a frequency of 0.06 Hz. The current amplitude upon repolarisation (HERG tail current) was measured before and after exposure to the test compound.
Inhibition of current was calculated as the difference between the amplitude of HERG tail current amplitude measured at the end of external bath perfusion period and HERG tail current measured at the end of test compound perfusion period (when steady-state effect is reached) divided by control HERG tail current.
Drug concentration-inhibition curves were obtained by plotting tonic blocks versus drug concentrations. Dose-response curves were fitted to the tonic block data, according to the logistic equation: y=A2+(A1−A2)/[1+(x/IC50)^p].

mice [3] = test: Amphetamine plus chlordiazepoxide-induced hyperlocomotion in mice; type: in vivo
Protocol: FIG. 1 provides total locomotor activity over 30 min. Mice were treated with ralfinamide (10; 30 and 60 mg/kg, po); or saline and returned to their home cage. After 30 min they received an injection of Amph (2.5 mg/kg; ip); Amph/CDP mixture (2.5 and 3.125 mg/kg; ip) or saline immediately prior to be placed in the test cage. Locomotor activity was recorded for 30 min.
Amphetamine Plus Chlordiazepoxide-Induced Hyperlocomotion in Mice
The anti mania activity, predictive of efficacy in bipolar disorders, was measured using the “Amphetamine plus chlordiazepoxide-induced hyperlocomotion in mice” model according to the following procedure.
In this model, mice are treated with a mixture of d-amphetamine plus an anxiolytic dose of the benzodiazepine, chlordiazepoxide (Rushton R and Steinberg H. Nature 1966; 211: 1312-3; R. Arban, et al. Behavioural Brain Research, 158: 123-132). The model has been claimed to mimic some aspects of mania in bipolar disorder. Importantly, the hyperactivity induced by the mixture of d-amphetamine and chlordiazepoxide could be prevented by prior administration of the established mood stabilizer, lithium, as well as other mood stabilizers drugs (e.g. magnesium valproate and carbamazepine). Therefore, this model has face and predictive validity as a model of bipolar disorders and represents a valuable tool to determine, if a test compound could be a potential mood stabilizer drug candidate.
D-amphetamine (Amph) (2.5 mg/kg ip) plus chlordiazepoxide hydrochloride (CDP) (3 mg/kg ip) were administered to male Albino Swiss mice (25-32 g) in a volume of 10 ml/kg. The locomotor activity was recorded using an automated Activity Cage LE 881 (Panlab) (45×45 cm). This system detects animal movements from 2 levels of 4 side infrared sensors placed all around the square cage. Mice were pretreated with the test compound (0.5-60 mg/kg po) and 30 min later, with Amph (2.5 mg/kg ip) or Amph jointly with CDP (3 mg/kg ip) and were placed individually in the motor activity cages. The locomotor activity was measured in terms of total distance travelled (cm) over a period of 30 min. Each group consisted of 8-10 mice.
Statistical analysis: a two-way analysis of variance (ANOVA) with Amph treatment factor and drug treatment factor was performed. Bonferroni's procedure was used for multiple comparison post hoc analysis.
D-amphetamine-chlordiazepoxide administration induced a significant increase in locomotor activity.

CYP3A4 = target: T5, CYP3A4 (Homo sapiens, UniProt P08684); test: Cytochrome P450 assay (Gentest Kit), CYP3A4; type: in vitro ADME; details: human recombinant isoenzyme, Table 1
T5 construct: purchased Gentest
T5 sequence (P08684 whole entry): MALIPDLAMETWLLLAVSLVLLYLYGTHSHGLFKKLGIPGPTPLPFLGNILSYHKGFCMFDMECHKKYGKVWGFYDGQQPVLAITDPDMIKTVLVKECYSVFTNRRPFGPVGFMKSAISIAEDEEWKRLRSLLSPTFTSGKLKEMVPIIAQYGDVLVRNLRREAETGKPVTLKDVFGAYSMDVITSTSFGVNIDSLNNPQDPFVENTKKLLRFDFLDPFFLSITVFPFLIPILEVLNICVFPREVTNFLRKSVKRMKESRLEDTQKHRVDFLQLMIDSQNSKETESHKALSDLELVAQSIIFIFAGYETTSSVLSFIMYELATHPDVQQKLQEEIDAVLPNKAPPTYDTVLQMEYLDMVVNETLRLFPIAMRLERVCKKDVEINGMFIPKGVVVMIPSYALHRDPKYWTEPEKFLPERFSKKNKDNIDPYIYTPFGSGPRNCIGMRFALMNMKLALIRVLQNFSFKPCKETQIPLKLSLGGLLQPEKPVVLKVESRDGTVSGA
Protocol: as §1, §2
benzylphenylcoumarin (CYP3A4)

Row | Structure (SMILES) | IC50 at 24 h [1] [µM] | IC50 (CYP2D6) [µM] | IC50 (CYP2C19) [µM] | IC50 (CYP2C9) [µM] | IC50 (CYP1A2) [µM] | MES % protection (mice [2]; mice, 3 mg/kg ip) [%] | MES % protection (mice [2]; mice, 10 mg/kg ip) [%] | MES % protection (mice [2]; mice, 30 mg/kg ip) [%] | IC50 (HERG channel) [µM] | MES Protection % (mice [2]; mice, 10 mg/kg p.o.) [%] | MES (head blank; protection) (mice [2]; mice, 20 mg/kg p.o.) [%] | IC50 (CYP3A4) [µM] | also measured
1 | CS(=O)(=O)O.C[C@H](NCc1ccc(OCc2cccc(F)c2)cc1)C(N)=O [Safinamide methanesulfonate, (S)-2-[4-(3-fluorobenzyloxy)benzylamino]propanamide methanesulfonate] | 248 | > 40 | 23.9 | > 40 | > 40 | 50 | 100 | 100 | 27 | – | – | – | –
2 | CS(=O)(=O)O.C[C@H](NCc1ccc(OCc2ccccc2F)cc1)C(N)=O [Ralfinamide methanesulfonate, (S)-2-[4-(2-fluorobenzyloxy)benzylamino]propanamide methanesulfonate] | > 300 | > 40 | > 40 | > 40 | > 40 | – | – | – | 18 | 60 | 90 | – | –
3 | C[C@H](NCc1ccc(OCc2ccccc2F)cc1)C(N)=O [ralfinamide, (S)-2-[4-(2-fluorobenzyloxy)-benzylamino]propanamide] | – | – | – | – | – | – | – | – | – | – | – | – | total locomotor activity over 30 min, Bonferroni versus Amph/CDP mixture (mice [3]; 30 mg/kg po): statistical difference; total locomotor activity over 30 min, Bonferroni versus Amph alone (mice [3]; 60 mg/kg po): statistical difference; total locomotor activity over 30 min, Bonferroni versus Amph/CDP mixture (mice [3]; 60 mg/kg po): statistical difference; hyperactivity induced by Amph/CDP mixture (locomotor activity) (mice [3]; orally administered, 30 min before Amph/CDP ip): significantly decreasing the hyperactivity
4 | C[C@H](NCc1ccc(OCc2ccccc2F)c(Cc2ccccc2F)c1)C(N)=O [Impurity IId, (S)-2-[3-(2-fluorobenzyl)-4-(2-fluorobenzyloxy)-benzylamino]propanamide methanesulfonate] | 15 | 0.92 | 1.89 | 8.01 | > 40 | – | – | – | 2.66 | 0 | 0 | 0.05 | MES dead/live (mice [2]; mice, 10 mg/kg p.o.): 0/10; MES dead/live (mice [2]; mice, 20 mg/kg p.o.): 0/10; protection from convulsions in MES test (mice [2]; mice, p.o. at 10 and 20 mg/kg): doesn't protect
5 | C[C@H](NCc1ccc(OCc2cccc(F)c2)c(Cc2cccc(F)c2)c1)C(N)=O [Impurity IIc, (S)-2-[3-(3-fluorobenzyl)-4-(3-fluorobenzyloxy)-benzylamino]propanamide methanesulfonate] | 6.7 | 0.77 | 0.42 | 7.29 | > 40 | 0 | 0 | 0 | 1.2 | – | – | 0.05 | MES dead/live (mice [2]; mice, 3 mg/kg ip): 5/10; MES dead/live (mice [2]; mice, 10 mg/kg ip): 4/10; MES dead/live (mice [2]; mice, 30 mg/kg ip): 4/10; pharmacological activity, i.e. protection from convulsions, in MES test (mice [2]; mice, ip, from 3 mg/kg): without any pharmacological activity; mortality in the mice MES test (mice [2]; starting from 3 mg/kg ip): increases
